Values quoted from earlier work, collected in patent US20150079197A1, “MEDICINE COMPRISING COMBINATION OF GENERAL ANESTHETIC AND HYDROGEN” (MARUISHI PHARMACEUTICAL CO., LTD., priority 2012, published 2015).

Legend:
degenerated neurons = details: neonatal rats, Non Patent Literature 30

neurodegeneration (degenerated neurons) | neurodegeneration (developing brains; alone) | Compound | increase in the apoptosis level in the cortex (developing brains; cortex, as compared with the control) [fold] | increase in the apoptosis level in the hippocampus (developing brains; hippocampus) [fold]
dose-dependent neurodegeneration | – | FC(F)OC(Cl)C(F)(F)F (stereo not shown) [isoflurane] | 4 | 4
– | no neurodegeneration | [N-]=[N+]=O [nitrous oxide] | – | –
